Bridge positions count the residues as written; N and C are the ends. Peptide text beside a SMILES is read from it.
Target: ATP-dependent translocase ABCB1 (Homo sapiens, UniProt P08183)
Assay: TP_TRANSPORTER: drug resistance in MCF-7/Dox cells
Type: functional, cell-based

Sequence of ATP-dependent translocase ABCB1 (P08183 whole entry): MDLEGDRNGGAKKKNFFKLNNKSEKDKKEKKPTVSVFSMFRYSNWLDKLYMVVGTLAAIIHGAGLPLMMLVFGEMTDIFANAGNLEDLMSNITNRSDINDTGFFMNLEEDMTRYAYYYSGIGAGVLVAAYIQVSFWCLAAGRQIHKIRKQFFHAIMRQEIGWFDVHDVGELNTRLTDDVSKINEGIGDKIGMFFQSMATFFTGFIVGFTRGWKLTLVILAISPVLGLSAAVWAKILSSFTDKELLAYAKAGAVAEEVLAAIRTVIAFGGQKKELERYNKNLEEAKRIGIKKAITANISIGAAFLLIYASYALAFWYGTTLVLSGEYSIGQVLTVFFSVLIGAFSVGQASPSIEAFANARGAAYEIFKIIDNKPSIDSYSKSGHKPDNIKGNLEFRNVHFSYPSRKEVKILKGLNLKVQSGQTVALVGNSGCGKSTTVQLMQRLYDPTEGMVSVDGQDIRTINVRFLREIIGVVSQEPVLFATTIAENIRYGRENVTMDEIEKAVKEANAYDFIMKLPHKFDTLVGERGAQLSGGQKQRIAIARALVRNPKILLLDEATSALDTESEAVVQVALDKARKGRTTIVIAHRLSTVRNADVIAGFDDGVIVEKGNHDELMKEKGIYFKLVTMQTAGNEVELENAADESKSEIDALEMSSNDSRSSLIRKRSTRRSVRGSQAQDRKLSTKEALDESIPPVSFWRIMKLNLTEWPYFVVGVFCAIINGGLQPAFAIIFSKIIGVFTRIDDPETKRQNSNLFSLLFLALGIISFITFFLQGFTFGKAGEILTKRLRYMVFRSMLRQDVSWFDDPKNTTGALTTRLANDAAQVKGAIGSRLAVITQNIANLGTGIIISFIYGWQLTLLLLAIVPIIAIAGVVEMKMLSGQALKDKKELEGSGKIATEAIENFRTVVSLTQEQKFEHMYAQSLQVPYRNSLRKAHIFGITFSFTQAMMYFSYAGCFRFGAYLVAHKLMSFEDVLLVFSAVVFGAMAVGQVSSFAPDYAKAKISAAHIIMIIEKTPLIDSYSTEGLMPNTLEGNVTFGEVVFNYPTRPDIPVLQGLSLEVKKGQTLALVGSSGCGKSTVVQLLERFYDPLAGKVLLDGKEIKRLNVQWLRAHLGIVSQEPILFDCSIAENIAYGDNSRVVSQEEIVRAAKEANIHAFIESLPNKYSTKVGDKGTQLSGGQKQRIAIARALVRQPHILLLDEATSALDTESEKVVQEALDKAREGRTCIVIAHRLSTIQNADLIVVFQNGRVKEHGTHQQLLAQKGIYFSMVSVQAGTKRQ

Activity	Compound
substrate [+]	COc1cccc2c1C(=O)c1c(O)c3c(c(O)c1C2=O)C[C@@](O)(C(=O)CO)C[C@@H]3O[C@H]1C[C@H](N)[C@H](O)[C@H](C)O1 [DOXORUBICIN]
is not a substrate [-]	CC[C@H](C)[C@@H]1NC(=O)[C@H](CCCCN)NC(=O)[C@@H](NC(=O)[C@@H](NC(=O)[C@@H](NC(=O)[C@@H](NC(=O)[C@@H]2CCCN2C(=O)[C@H](CC(C)C)NC(=O)[C@H](Cc2ccccc2)NC(=O)[C@H](CC(N)=O)NC(=O)[C@H](C)NC(=O)[C@H](C)NC(=O)[C@H](CC(C)C)NC(=O)CNC(=O)[C@H](C)NC(=O)[C@H](CC(C)C)NC(=O)[C@H](CC(C)C)NC(=O)[C@@H]2CCCN2C(=O)[C@H](CC(C)C)NC(=O)[C@@H](N)Cc2ccccc2)[C@@H](C)O)[C@@H](C)CC)[C@@H](C)CC)CSSC[C@@H](C(=O)O)NC(=O)[C@H](CCCCN)NC(=O)[C@H](Cc2ccc(O)cc2)NC(=O)[C@H](CO)NC1=O [GAEGURIN 6] (H-FLPLLAGLAANFLPTIICKISYKC-OH; disulfide 18-24)
substrate [+]	CC(=O)O[C@H]1C(=O)[C@@]2(C)[C@H]([C@H](OC(=O)c3ccccc3)[C@]3(O)C[C@H](OC(=O)[C@H](O)[C@@H](NC(=O)c4ccccc4)c4ccccc4)C(C)=C1C3(C)C)[C@]1(OC(C)=O)CO[C@@H]1C[C@@H]2O [PACLITAXEL]
is not a substrate [-]	H-FLGALFKALCKLL-OH
is not a substrate [-]	H-FLGALFKALSKLL-OH

Source: ChEMBL document CHEMBL2074213, “In vitro activities of native and designed peptide antibiotics against drug sensitive and resistant tumor cell lines” (Peptides, 2003)
